Measurements published in patent publication US7355074B2, “Compounds having aromatic rings and side-chain amide-functionality and a method for transporting monovalent anions across biological membranes using the same” (The University of Maryland, priority 2003, dated 2008).

Test: pH changes in liposomes experiencing a Cl- gradient (oligophenoxyacetamides)
Assay type: biochemical
Description: FIG. 2B illustrates alkanization of the vesicular aqueous compartment upon application of compounds 1-6 to a suspension of NaCl-containing vesicles in isosmomolar Na2SO4 buffer. Concentration of compounds 1-6 in the vesicular suspension was 20 μm (4 mol %). Legend for traces denotes use of oligocompounds 1, 2, 3, 4, 5, 6.
Liposome Preparation for Fluorimetric Assays. Egg yolk L-α-phosphatidylcholine (EYPC ethanol solution, […], 79 μmol) was dissolved in a CHCl3/MeOH mixture, the solution was evaporated under reduced pressure and the resulting thin film was dried under high vacuum for 2 h. The lipid film was hydrated in 1.2 mL of phosphate buffer (10 mM sodium phosphate, pH=6.4, 75-100 mM MnX, M=N^+, K^+, X=Cl^−, SO4^2−, n=1,2) containing 10 μM HPTS (pyranine, 8-hydroxypyrene-1,3,6-trisulfonic acid trisodium salt) for 40 min. During hydration, the suspension was submitted to 5 freeze-thaw cycle (liquid nitrogen, water at rt). The large multilamellar liposome suspension (1 mL) was submitted to high-pressure extrusion at rt (21 extrusions through a 0.1 μm polycarbonate membrane afforded a suspension of LUVs with an average diameter of 100 nm). The LUV suspension was separated from extravesicular dye by size exclusion chromatography (SEC) (stationary phase: Sephadex G-10, mobile phase: phosphate buffer) and diluted with the same phosphate buffer to give a stock solution with a lipid concentration of 11 mM (assuming 100% of lipid was incorporated into liposomes).
Analysis of pH changes in the liposomes experiencing a CT gradient. a) Outwardly directed gradient of Cl:HPTS-loaded vesicles (100 μL of the stock solution), filled with a saline phosphate buffer (10 mM sodium phosphate, pH 6.4, 100 mM NaCl) were suspended in 1.9 mL of an isosmotic phosphate sulfate buffer (10 mM sodium phosphate, pH 6.0, 75 mM Na2SO4) and placed into a fluorimetric cell. The emission of HPTS at 510 nm was monitored with excitation wavelengths at 403 and 460 nm simultaneously. During the experiment, 20 μL of a 0-2 mM DMSO solution of the compound of interest was added through an injection port. Intravesicular pH values were obtained as described for pH-stat transport assays. At the end of experiment, the aqueous compartment of liposomes was equilibrated with extravesicular solution by lysis of liposomes with detergent (40 μL of 5% aqueous Triton X100). b) Inwardly directed gradient of Cl:HPTS-loaded vesicles (100 μL of the stock solution), filled with a isoosimomolar sulfate phosphate buffer (10 mM sodium phosphate, pH 6.0, 75 mM Na2SO4) were suspended in 1.9 mL of an isosmotic phosphate saline buffer (10 mM sodium phosphate, pH 6.4, 100 mM NaCl) and placed into a fluorimetric cell. Further analysis was conducted as described for the case of an outwardly directed gradient of […]. Analysis of the electrostatic potential on the surface of liposomes. LUVs (100 μL of stock solution, 100 mM KCl inside and outside or 75 mM Na2SO4 inside and outside) were suspended in 1.9 mL of 100 mM NaCl buffer containing 60 nM safranin O (a potential-sensitive dye). Safranin O emission was monitored at 580 nm with excitation at 520 nm. During the course of the experiment, 20 μL of a 0-0.12 mM DMSO solution of valinomycin or 0-2 mM of 3-8 DMSO solution was added. Experiments were completed by injection of 20 μL of 1 mM aqueous solution of the defect-inductive peptide melittin.

[1] = 4 mol %, NaCl-loaded liposomes in Na2SO4 buffer

CCCCNC(=O)COc1ccccc1Cc1cccc(Cc2ccccc2OCC(=O)NCCCC)c1OCC(=O)NCCCC [trimer 3, Tris-(N-butyl-2-phenoxyacetamide)]
pH gradient generated [1]: approximately are pH unit
time to reach the pH gradient [1]: ≤ 1.5 minutes
time the pH gradient remained stable (4 mol %, until the liposomes were lysed): 5 minutes
relative ability to alter the pH in liposomes under a Cl− gradient (NaCl-loaded liposomes in Na2SO4 buffer): most active compound in the series tested
transport under inwardly directed Cl− gradient (sulfate-loaded liposomes suspended in Cl− buffer): transports both Cl^− and H^+ into sulfate-loaded liposomes
